Measured values taken from the supplement of paper PMC10307832.

Legend:
Assay in all cases: relative viability (nuclei count vs DMSO), 5 days (fraction); higher = more cells survive
[1] = compound: COC1=CC=C(C=C1)CN2C=CC3=C2C=C(C=C3)C(=O)NO + Cc1cc(Nc2cc(N3CCN(C)CC3)nc(Sc3ccc(NC(=O)C4CC4)cc3)n2)n[nH]1 [Tozasertib] (partner 0.1 µM)
Method in brief: (§1)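 Relative viability is defined as nuclei in treated wells over nuclei in vehicle wells. Duplicate plates were run and medians reported. Lung cancer cell lines in 1536-well plates were dosed by pin tool one day after seeding, with one drug or with a fixed anchor-drug dose plus five library-drug doses (not always all listed) in √10 steps, and nuclei were counted after 5 days.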

Veliparib + Foretinib = compound: C[C@]1(c2nc3c(C(N)=O)cccc3[nH]2)CCCN1 [Veliparib] + COc1cc2c(Oc3ccc(NC(=O)C4(C(=O)Nc5ccc(F)cc5)CC4)cc3F)ccnc2cc1OCCCN1CCOCC1 [Foretinib] (partner 0.25 µM)
Method in brief: as §1

Veliparib + Linsitinib = compound: C[C@]1(c2nc3c(C(N)=O)cccc3[nH]2)CCCN1 [Veliparib] + C[C@]1(O)C[C@@H](c2nc(-c3ccc4ccc(-c5ccccc5)nc4c3)c3c(N)nccn32)C1 [Linsitinib] (partner 1 µM)
Method in brief: as §1

Veliparib + Bortezomib = compound: C[C@]1(c2nc3c(C(N)=O)cccc3[nH]2)CCCN1 [Veliparib] + CC(C)C[C@H](NC(=O)[C@H](Cc1ccccc1)NC(=O)c1cnccn1)B(O)O [Bortezomib] (partner 0.002 µM)
Method in brief: as §1

Cell Line	relative viability ([1]; first compound 0.08 µM)	relative viability ([1]; first compound 0.253 µM)	relative viability ([1]; first compound 0.8 µM)	relative viability ([1]; first compound 2.53 µM)	relative viability ([1]; first compound 8 µM)	relative viability (Veliparib + Foretinib; first compound 0.2 µM)	relative viability (Veliparib + Foretinib; first compound 0.6325 µM)	relative viability (Veliparib + Foretinib; first compound 2 µM)	relative viability (Veliparib + Linsitinib; first compound 0.02 µM)	relative viability (Veliparib + Linsitinib; first compound 0.06325 µM)	relative viability (Veliparib + Linsitinib; first compound 0.2 µM)	relative viability (Veliparib + Linsitinib; first compound 0.6325 µM)	relative viability (Veliparib + Linsitinib; first compound 2 µM)	relative viability (Veliparib + Bortezomib; first compound 0.02 µM)	relative viability (Veliparib + Bortezomib; first compound 0.06325 µM)	relative viability (Veliparib + Bortezomib; first compound 0.2 µM)	relative viability (Veliparib + Bortezomib; first compound 0.6325 µM)	relative viability (Veliparib + Bortezomib; first compound 2 µM)	relative viability (Veliparib + Foretinib; first compound 0.02 µM)	relative viability (Veliparib + Foretinib; first compound 0.06325 µM)
201T	0.677	0.976	0.998	0.877	0.943	1.2	1.03	1.14	1.08	1.06	0.995	1.02	1.01	1.09	1.07	1.06	1.18	1.08		
A549						0.962	0.807	0.963	0.62	0.576	0.591	0.626	0.586						1.07	0.878
A-427		0.234	0.212	0.202	0.185	0.991	0.981	1.11	1.21	1.05	1.04	1.03	1.14	0.969	0.936	0.929	0.99	0.959		0.936
ABC-1		0.221	0.183	0.162	0.209	1.12	0.961	1.15		0.767	0.807	0.759	0.892		0.266	0.257	0.259	0.304		0.858
BEN	0.442	0.472	0.437	0.495	0.445	0.724	0.656	0.569	0.803	0.875	1.15	0.928	0.946	0.676	0.739	0.827	0.87	0.78	0.413	0.482
CAL-12T	0.293	0.344	0.362	0.328	0.323	1.15	1.09	1.29	0.356	0.823	0.775	0.765	0.817	0.862	0.72	0.952	1.18	0.971	1.2	1.04
COR-L23	0.167	0.197	0.203	0.201	0.169	0.956	0.962	0.866	1.1	0.886	0.9	0.656	0.816	0.92	0.991	1.01	0.966	0.967	0.958	0.987
COR-L 105	0.351	0.355	0.328	0.416	0.319	1.1	1.07	0.943	0.984	0.86	0.982	0.915	0.915	0.735	0.633	0.548	0.783	0.83	1.17	1
Calu-6						0.852	0.84	0.969	0.582	0.826	0.999	0.963	0.987	1.1	0.966	0.926	1.02	0.859	0.967	0.82
ChaGo-K-1		0.249	0.211	0.214	0.234	0.845	0.784	0.923							0.863	1.09	1.05	0.804	0.874	0.873
EBC-1						0.12	0.12	0.108	0.771	0.807	0.723	0.793	0.97	0.615	0.539	0.527	0.479	0.57	0.0919	0.11
EKVX	0.374	0.369	0.409	0.372	0.36	0.728	0.834	0.533	0.948	0.912	0.952	0.86	1.02	0.806	0.893	0.888	0.978	1.16	0.395	0.386
EMC-BAC-2	0.196	0.286	0.287	0.283	0.237	1.11	1.01	1.02	0.841	0.801	0.886	0.793	0.828	1.11	1.03	1.07	1.05	1.09	0.999	0.911
EPLC-272H	0.135		0.346	0.235	0.272	0.677	0.659	0.878		1.11	1.18	1.08	1.24		0.84	0.964	0.85	0.878	0.743	0.609
H3255	0.457	0.393	0.639	0.497	0.604	0.811	0.78	0.795	0.882	0.981	0.953	0.833	0.981	0.729	0.835	0.737	0.827	1.02	0.739	0.462
HARA		0.109	0.114	0.128	0.0964	0.866	0.851	0.828	1.15	0.992	0.908	0.743	1.07	1.13	1.1	0.995	1.11	1.16	0.898	1.06
HCC-15	0.208	0.515	0.391	0.327	0.318	1.05	1.05	1.06	0.928	0.84	0.909	0.83	0.921	0.781	1.02	0.991	0.932	0.984		1.01
HCC-44	0.803	0.909	0.946	0.863	0.792				0.665	0.5	0.636	0.622	0.694	0.885	0.759	0.879	0.829	0.846		
HCC-78	0.34	0.329	0.397	0.395	0.38	0.568	0.539	0.571	0.612	0.53	0.592	0.36	0.541	0.537	0.482	0.639	0.428	0.474	0.557	0.557
HCC-366	0.0975	0.116	0.124	0.354	0.0739	0.891	0.809	0.934	0.511	0.623	0.536	0.572	0.574	1.06	1.05	1.01	1.07	1.07	0.987	0.813
HCC-827	0.405	0.427	0.442	0.416	0.415	0.984	1.03	1.02	0.96	0.899	0.816	0.949	0.939	1.02	0.914	1.01	1.13	1.13	1.08	1.01

Cell Line	relative viability ([1]; first compound 0.08 µM)	relative viability ([1]; first compound 0.253 µM)	relative viability ([1]; first compound 0.8 µM)	relative viability ([1]; first compound 2.53 µM)	relative viability ([1]; first compound 8 µM)	relative viability (Veliparib + Foretinib; first compound 0.2 µM)	relative viability (Veliparib + Foretinib; first compound 0.6325 µM)	relative viability (Veliparib + Foretinib; first compound 2 µM)	relative viability (Veliparib + Linsitinib; first compound 0.02 µM)	relative viability (Veliparib + Linsitinib; first compound 0.06325 µM)	relative viability (Veliparib + Linsitinib; first compound 0.2 µM)	relative viability (Veliparib + Linsitinib; first compound 0.6325 µM)	relative viability (Veliparib + Linsitinib; first compound 2 µM)	relative viability (Veliparib + Bortezomib; first compound 0.02 µM)	relative viability (Veliparib + Bortezomib; first compound 0.06325 µM)	relative viability (Veliparib + Bortezomib; first compound 0.2 µM)	relative viability (Veliparib + Bortezomib; first compound 0.6325 µM)	relative viability (Veliparib + Bortezomib; first compound 2 µM)	relative viability (Veliparib + Foretinib; first compound 0.02 µM)	relative viability (Veliparib + Foretinib; first compound 0.06325 µM)
HOP-62	0.304	0.353	0.392	0.33	0.349	0.99	1.13	1.22	1	0.923	0.738	0.987	0.983	0.729	1.16	0.811	0.733	0.951	1.17	0.983
IA-LM						1.2	1.16	1.12	0.411	0.494	0.538	0.544	0.708	0.831	0.748	0.794	0.83	0.813	1.3	1.21
LC-2-ad	0.384	0.46	0.485	0.411	0.382	0.903	0.837	0.939		0.83	0.787	0.819	0.786		0.987	0.985	0.944	1.05		0.894
LCLC-97TM1	0.16	0.219	0.193	0.196	0.209	0.862	0.939	0.989	0.185	0.187	0.194		0.25		0.269	0.554	1.12	0.834	0.875	0.863
LK-2		0.196	0.197	0.157	0.174	1.32	1.13	1.15	0.689	0.592	0.476	0.558	0.548							1.26
NCI-H358		0.0969	0.108	0.131	0.0806	0.623	0.625	0.573		0.815	0.775	0.667	0.772						0.723	0.647
NCI-H522		0.589	0.53	0.613	0.545															
NCI-H1299						1.05	1.04	1.08	0.905	0.931	0.921	0.898	0.988	1.04	0.979	1.02	1.03	1	1.16	1.04
NCI-H1395	0.673	0.817	0.761	0.781	0.565	0.957	0.795	0.806		0.987	0.853	0.745	0.716						0.956	0.898
NCI-H1563						1.03	0.918	1.05	1.23	1.07	1.27	1.12	1.12	0.645	0.803	0.859	0.792	0.799	0.845	0.917
NCI-H1648	0.415	0.573	0.479	0.399	0.473															
NCI-H1650	0.391	0.379	0.447	0.416	0.326	1.35	0.98	1.17							0.195	0.204	0.2	0.182		0.895
NCI-H1703						0.42	0.321	0.355	0.17	0.63	1.22	0.604	0.974	0.366	0.308	0.408	0.354	0.426		
NCI-H1792									0.59	0.422	0.535	0.494	0.543	0.924	0.858	0.981	0.916	0.897		
NCI-H1793		0.337	0.297	0.398	0.3	0.814	0.747	0.794	0.864	0.804	0.956	0.728	0.828						0.652	0.608
NCI-H1944		0.262	0.261	0.262	0.234	0.731	0.817	0.813	1.21	1.17	1.06	1.19	1.12						0.806	0.906
NCI-H2170	0.439	0.869	0.694	0.729	0.616	0.963	0.942	1.03											0.977	1
NCI-H2342	0.497	0.701	0.544	0.531	0.47	1.06	1.01	0.903											1.16	1.05
SK-MES-1	0.816	0.895	0.868	0.874	0.81	0.995	0.837	1.01	1.05	1.03	1.06	0.913	1.09						1	0.799
SW 900	0.558	0.647	0.574	0.612	0.489	0.905	0.781	0.945												
